Results taken from patent US12448433B2, “Human ApoB100 epitopes, methods and uses for modulating inflammatory responses, and treating adverse cardiovascular events, disease and atherosclerosis” (LA JOLLA INSTITUTE FOR ALLERGY AND IMMUNOLOGY, priority 2015, dated 2025).
No end group written: not given here.

What was measured:
DPB1*05:01 = assay: Peptide binding to HLA-DP allele, competition assay; set-up: species or system human
Description: (§1) Peptide binding to MHC-II requires anchor residues in certain positions and thus can be predicted using computer algorithms. Affinity can be measured experimentally using a competition assay (1). Both are excellent screening tools. However, affinity must be measured separately for each MHC-II allele. Humans express molecules encoded in four different MHC-II loci, denominated HLA-DRB1, DRB3/4/5, DP and DQ. Allelic variation is large, and most people are heterozygous at each locus, thus expressing up to 8 relevant MHC-II alleles. CD4 T cell responses strictly require that the antigenic peptide binds to the relevant MHC-II.
(§2) To identify peptides that could potentially be used in human patients, 30 peptides were screened for binding to 26 HLA alleles by competition assay.

DPB1*14:01 = assay: as above; set-up: species or system human
Description: as §1, §2

DQB1*05:01 = assay: Peptide binding to HLA-DQ allele, competition assay; set-up: species or system human
Description: as §1, §2

DQB1*06:02 = assay: as above; set-up: species or system human
Description: as §1, §2

DPB1*02:01 = assay: Peptide binding to HLA-DP allele, competition assay; set-up: species or system human
Description: as §1, §2

DPB1*04:02 = assay: as above; set-up: species or system human
Description: as §1, §2

DPB1*04:01 = biological target: T1, DPB1*04:01 (Homo sapiens, UniProt P04440); assay: as above
T1 sequence (P04440 30-258): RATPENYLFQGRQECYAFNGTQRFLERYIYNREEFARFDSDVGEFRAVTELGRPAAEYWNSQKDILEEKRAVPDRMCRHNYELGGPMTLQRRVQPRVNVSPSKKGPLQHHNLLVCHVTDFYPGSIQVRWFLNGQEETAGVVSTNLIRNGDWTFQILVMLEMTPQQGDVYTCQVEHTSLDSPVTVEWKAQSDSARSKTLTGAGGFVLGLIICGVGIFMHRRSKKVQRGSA
T1 sequence (P20036 29-260 partner): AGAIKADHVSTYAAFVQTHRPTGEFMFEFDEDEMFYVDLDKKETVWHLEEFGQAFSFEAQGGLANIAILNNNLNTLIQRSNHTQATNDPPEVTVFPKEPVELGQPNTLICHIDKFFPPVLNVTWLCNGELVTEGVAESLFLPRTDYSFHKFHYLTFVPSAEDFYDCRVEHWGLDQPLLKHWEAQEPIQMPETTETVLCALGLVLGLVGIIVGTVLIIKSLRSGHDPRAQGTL
Description: as §1, §2

Compound: CC(C)C[C@H](NC(=O)[C@H](CC(C)C)NC(=O)[C@H](Cc1ccccc1)NC(=O)[C@H](CCCCN)NC(=O)[C@H](CO)NC(=O)[C@H](Cc1ccc(O)cc1)NC(=O)[C@H](CC(C)C)NC(=O)[C@@H](N)CCC(N)=O)C(=O)N[C@@H](CCCCN)C(=O)N[C@@H](C)C(=O)N[C@@H](CCC(=O)O)C(=O)N1CCC[C@H]1C(=O)N[C@@H](CC(C)C)C(=O)N[C@@H](C)C(=O)N[C@@H](Cc1ccccc1)C(=O)O [Peptide 3563.0011]
- IC50 (DPB1*05:01): 0.083 µM
- IC50 (DPB1*14:01): 0.051 µM
- IC50 (DQB1*05:01): 0.588 µM

Compound: CC[C@H](C)[C@H](NC(=O)[C@H](CCC(=O)O)NC(=O)[C@@H](N)CC(=O)O)C(=O)N[C@@H](CC(N)=O)C(=O)N[C@H](C(=O)N[C@H](C(=O)N[C@@H](Cc1ccccc1)C(=O)N[C@@H](CO)C(=O)N[C@@H](CC(=O)O)C(=O)N[C@@H](Cc1ccc(O)cc1)C(=O)N[C@H](C(=O)N1CCC[C@H]1C(=O)N[C@@H](Cc1ccc(O)cc1)C(=O)N[C@H](C(=O)N[C@@H](Cc1ccccc1)C(=O)O)C(C)C)[C@@H](C)CC)[C@@H](C)CC)[C@@H](C)O [Peptide 3563.0026]
- IC50 (DPB1*05:01): 6.9 µM
- IC50 (DPB1*14:01): 15.2 µM
- IC50 (DQB1*06:02): 4.55 µM

Compound: CC[C@H](C)[C@H](NC(=O)[C@H](CC(C)C)NC(=O)[C@H](Cc1ccc(O)cc1)NC(=O)[C@@H](NC(=O)[C@H](Cc1ccccc1)NC(=O)[C@@H](N)CCCCN)[C@@H](C)O)C(=O)N[C@@H](CC(N)=O)C(=O)N[C@@H](Cc1ccc(O)cc1)C(=O)N[C@H](C(=O)N[C@@H](CCC(N)=O)C(=O)N[C@@H](CC(=O)O)C(=O)N[C@@H](CCC(=O)O)C(=O)N[C@H](C(=O)N[C@@H](CC(N)=O)C(=O)N[C@H](C(=O)O)[C@@H](C)O)[C@@H](C)CC)[C@@H](C)CC [Peptide 3563.0025]
- IC50 (DPB1*14:01): 13.7 µM
- IC50 (DQB1*05:01): 0.013 µM

Compound: LSQLTYMIQFDQYI [Peptide 3563.0012]
- IC50 (DPB1*02:01): 0.576 µM
- IC50 (DPB1*04:02): 0.622 µM
- IC50 (DPB1*05:01): 4.12 µM
- IC50 (DQB1*05:01): 0.028 µM
- IC50 (DQB1*06:02): 43.1 µM

Compound: CC[C@H](C)[C@H](N)C(=O)N[C@@H](CC(=O)O)C(=O)N[C@@H](CC(C)C)C(=O)N[C@@H](CO)C(=O)N[C@H](C(=O)N[C@@H](CCC(N)=O)C(=O)N[C@@H](CC(N)=O)C(=O)N[C@@H](Cc1ccc(O)cc1)C(=O)N[C@@H](Cc1c[nH]cn1)C(=O)N[C@H](C(=O)N[C@@H](Cc1ccccc1)C(=O)N[C@@H](CC(C)C)C(=O)N[C@H](C(=O)N[C@@H](Cc1ccc(O)cc1)C(=O)N[C@H](C(=O)O)[C@@H](C)CC)[C@@H](C)CC)[C@@H](C)O)[C@@H](C)CC [Peptide 3563.0029]
- IC50 (DPB1*02:01): 23.2 µM
- IC50 (DPB1*04:02): 15.6 µM
- IC50 (DPB1*05:01): 9.16 µM
- IC50 (DPB1*04:01): 25 µM

Compound: CC[C@H](C)[C@H](NC(=O)[C@H](Cc1ccc(O)cc1)NC(=O)[C@H](Cc1c[nH]cn1)NC(=O)[C@H](CC(C)C)NC(=O)[C@@H](N)Cc1ccccc1)C(=O)N[C@@H](Cc1ccccc1)C(=O)N[C@@H](CCSC)C(=O)N[C@@H](CCC(=O)O)C(=O)N[C@@H](CC(N)=O)C(=O)N[C@@H](C)C(=O)N[C@@H](Cc1ccccc1)C(=O)N[C@@H](CCC(=O)O)C(=O)N[C@@H](CC(C)C)C(=O)N1CCC[C@H]1C(=O)N[C@H](C(=O)O)[C@@H](C)O [Peptide 3563.0006]
- IC50 (DPB1*02:01): 0.04 µM
- IC50 (DPB1*04:02): 0.0044 µM
- IC50 (DPB1*04:01): 0.032 µM
- IC50 (DQB1*05:01): 0.039 µM

Compound: CC(C)C[C@H](NC(=O)[C@H](CC(C)C)NC(=O)[C@H](CC(C)C)NC(=O)[C@H](CC(C)C)NC(=O)[C@H](C)NC(=O)[C@@H]1CCCN1C(=O)[C@H](CC(C)C)NC(=O)[C@H](C)NC(=O)[C@H](CC(C)C)NC(=O)[C@H](CC(C)C)NC(=O)[C@H](C)NC(=O)[C@H](CC(C)C)NC(=O)[C@H](CC(C)C)NC(=O)[C@H](C)NC(=O)[C@@H]1CCCN1)C(=O)O [Peptide 3563.001]
- IC50 (DPB1*04:02): 1.63 µM
- IC50 (DPB1*05:01): 6.56 µM
- IC50 (DPB1*04:01): 14 µM
- IC50 (DQB1*06:02): 24.2 µM

Compound: CC[C@H](C)[C@H](NC(=O)CNC(=O)[C@H](CCSC)NC(=O)[C@H](CC(N)=O)NC(=O)[C@@H](NC(=O)[C@@H](NC(=O)[C@H](Cc1ccccc1)NC(=O)[C@H](CCC(=O)O)NC(=O)[C@@H](N)C(C)C)C(C)C)[C@@H](C)O)C(=O)N[C@H](C(=O)N[C@H](C(=O)N1CCC[C@H]1C(=O)N[C@@H](CC(=O)O)C(=O)N[C@@H](Cc1ccccc1)C(=O)N[C@@H](C)C(=O)O)[C@@H](C)CC)[C@@H](C)CC [Peptide 3563.0007]
- IC50 (DPB1*02:01): 0.012 µM
- IC50 (DPB1*05:01): 6.69 µM
- IC50 (DPB1*14:01): 15.6 µM
- IC50 (DQB1*05:01): 0.228 µM
- IC50 (DQB1*06:02): 8.4 µM
